pIC50: −log10 of the molar value.
Molecular target: T1, Geranylgeranyl pyrophosphate synthase (Homo sapiens, UniProt O95749)
T1 sequence (O95749 whole entry): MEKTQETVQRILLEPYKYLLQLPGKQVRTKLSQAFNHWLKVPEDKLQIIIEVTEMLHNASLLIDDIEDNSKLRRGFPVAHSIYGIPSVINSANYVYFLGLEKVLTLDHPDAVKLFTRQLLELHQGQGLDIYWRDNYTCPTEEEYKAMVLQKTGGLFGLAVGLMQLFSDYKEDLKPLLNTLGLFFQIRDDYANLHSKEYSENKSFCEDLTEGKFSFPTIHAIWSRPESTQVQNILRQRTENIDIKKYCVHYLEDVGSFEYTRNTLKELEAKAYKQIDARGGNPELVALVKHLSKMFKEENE
Experiment: GGPP Synthase Inhibition Assay
Conditions: pH 7; 37 °C
Method: The inhibitory activity of each test compound was evaluated by monitoring the formation of [14C]GGPP from FPP, using [14C]IPP as the substrate. To confirm the formation of radioactive products, one-dimensional thin-layer chromatography (TLC), with autoradiographic detection of [14C]FPP/[14C]GGPP, was used.

Compound	pIC50
CCCCCCCCc1ccc[n+](CC(O)(P(=O)([O-])O)P(=O)(O)O)c1 (configuration not stated) [1-(2-hydrogenphosphonato-2-hydroxy-2-phosphonoethyl)-3-octylpyridin-1-ium]	5.86
CCCCCCCCCC(O)(P(=O)(O)O)P(=O)(O)O [(1-hydroxy-1-phosphonodecyl)phosphonic acid]	6.05
